Earlier results in patent US12263152B2, “Method of preventing and treating chemotherapy-induced alopecia” (JJR&D, LLC, priority 2022, dated 2025).
Like-named read-outs stand apart in the source and are kept apart here.

Columns and labels:
[1] = test system: cyclophosphamide-induced alopecia; details: animal studies
[2] = test system: CIA; details: neonatal rat model
[3] = test system: CIA; details: studies on humans
[4] = test system: alopecia
[5] = test system: most commonly used alopecic chemotherapies; details: topical pretreatment, rats

For epidermal growth factor, the “Protection from cyclophosphamide (CTX)-induced alopecia” value [1] is given as “lack of protection”.
In the case of `Cl[TeH]1(Cl)(Cl)OCCO1` [AS101], the “Protective role against CIA” value [2] is given as “protective role” and the “Protective role against CIA” value [3] is given as “protective role”.
In the case of “recombinant interleukin 1 β: recombinant interleukin 1 β”, the “Protection from cyclophosphamide (CTX)-induced alopecia” value [1] is listed as “lack of protection”.
For `C=C1/C(=C\C=C2/CCC[C@]3(C)[C@@H]([C@H](C)CCCC(C)(C)O)CC[C@@H]23)C[C@@H](O)C[C@@H]1O` [Calcitriol, 1,25-(OH)2D3], the “Patients with alopecia of <50% from baseline” value ([4]; Week 7, of 23 female patients, topical 5-80 μg/mL twice daily) is given as 8 patients, the “Patients with <50% alopecia maintained” value ([4]; Week 15, of 23 female patients, topical 5-80 μg/mL twice daily) is given as 2 patients and the Maximum tolerated dose ([4]; topical drug product, dose escalation up to 80 μg/mL twice daily) is given as “not reached”. The “Protection from the most commonly used alopecic chemotherapies” value [5] was “protected”.
